{
  "source": "patent US7485324B2",
  "about": "“Use of exogenous gaseous nitric oxide in the treatment and disinfection of biofilms” (Pulmonox Technologies Corporation, priority 2003, dated 2009)",
  "key": {"[1]": {"system": "B. cenocepacia C8963", "assay": "Biofilm formation in 96-well microtiter dish assay (crystal violet staining, A595)", "assay_type": "cell-based, Burkholderia cenocepacia", "conditions": "for C8963 biofilm growth in the presence of gNO compared with absence of gNO: 200 ppm gNO; for Average A595 (C8 + NO), biofilm formation: experiment 2", "description": "(§1) Objective: To determine if exposure to gaseous nitric oxide (gNO) affects the ability of B. cenocepacia C8963 to form a biofilm in a 96-well microtiter dish assay.\n(§2) Methods: B. cenocepacia C8963, a non-mucoid isolate from a cystic fibrosis (CF) patient, and C9343, a mucoid isolate from the same patient, were spotted on Luria Broth agar and grown at 37° C. overnight. Luria broth containing 0.5% (w/v) casamino acids was dispensed into 96-well polypropylene microtiter dishes (100 μl per well) and the wells inoculated with the C8963 or C9343 using a pin-inoculation device. Blank wells were not inoculated. Dishes were incubated in a humidified, closed plastic container for 24 hours at 37° C. (experiment 1) or in the outer chamber of the matrix incubator (a humidified incubator with controlled air flow) for 27 hours at 37° C. (experiment 2). At 24 hours (experiment 1) or 27 hours (experiment 2), one dish was processed for staining of the bacterial biofilms. The remaining dishes were incubated in the inner treatment arms of the matrix incubator at 37° C. in the presence or absence of 200 ppm gNO. One dish for each of the conditions (+gNO or −gNO) was processed for biofilm staining at 32, 36, and 48 hours.\n(§3) To stain biofilm growth, planktonic bacteria were removed from the microtitre dishes by discarding media and cells. Biofilms were washed to remove remaining non-adherent bacteria in two successive tap water washes. Water was shaken from the wells and the dishes inverted and tapped vigorously on a stack of paper towels to remove as much water as possible. Adherent growth was stained by adding 125 μlof a 0.1% (w/v) solution of crystal violet to each well and incubating at room temperature for 15 minutes. Crystal violet was discarded as for the previous washes and excess stain was removed in three successive tap-water washes. Excess water was removed by vigorous tapping as before and the stained dishes allowed to air dry.\n(§4) To quantitate biofilm formation, 200 μl of 95% ethanol was added to each well, incubated at room temperature for 15 minutes, and 125 μl from each well was removed to a clean flat-bottomed polystyrene microtitre dish. The absorbance at 595 nm was read on a Bio-Rad Model 3550 Microplate Reader. The average reading from “Blank” (uninoculated) wells containing only media was subtracted from each “Test” well. The [Test-Blank] averages and standard errors of the mean (SEM) were calculated for each condition and time."}, "[2]": {"system": "B. cenocepacia C9343", "assay": "Biofilm formation in 96-well microtiter dish assay (crystal violet staining, A595)", "assay_type": "cell-based, Burkholderia cenocepacia", "conditions": "200 ppm gNO; experiment 1", "description": "as §1, §2, §3, §4"}},
  "data": [
    {"smiles": "[N]=O", "note": "[gNO, nitric oxide]", "values": [
      {"measurement": "Effect on biofilm formation of C8963", "setting": "[1]; 200 ppm final concentration of gNO", "value": "inhibited biofilm formation"},
      {"measurement": "C8963 biofilm growth in the presence of gNO compared with absence of gNO", "setting": "[1]; at 32 hours, experiments 1 and 2", "value": "greater than in the absence of gNO"},
      {"measurement": "C8963 biofilm growth in the presence of gNO compared with absence of gNO", "setting": "[1]; by 36 hours, experiments 1 and 2", "value": "significantly lower than in the absence of gNO"},
      {"measurement": "C8963 biofilm growth in the presence of gNO compared with absence of gNO", "setting": "[1]; remaining time points up to 48 hours, both experiments", "value": "consistently lower"},
      {"measurement": "Average A595 (C8 + NO), biofilm formation", "setting": "[1]; time 27 h, after 27 hours in air, before exposure to 200 ppm gNO", "value": 0.076},
      {"measurement": "Average A595 (C8 + NO), biofilm formation", "setting": "[1]; time 32 h, 200 ppm gNO from 27 h, 37° C.", "value": 0.282},
      {"measurement": "Average A595 (C8 + NO), biofilm formation", "setting": "[1]; time 36 h, 200 ppm gNO from 27 h, 37° C.", "value": 0.252},
      {"measurement": "Average A595 (C8 + NO), biofilm formation", "setting": "[1]; time 48 h, 200 ppm gNO from 27 h, 37° C.", "value": 0.334},
      {"measurement": "Effect on biofilm growth of C8963", "setting": "[1]; low initial concentrations of gNO", "value": "enhanced biofilm growth"},
      {"measurement": "Induction of biofilm formation by mucoid C9343", "setting": "[2]", "value": "did not induce biofilm formation"}
    ]}
  ]
}
